The structures appear in SMILES notation.

Holding throughout (conditions): recombinant enzyme
The target in one data set is Cytochrome P450 2D6 (Homo sapiens, UniProt P10635). Nature of the data set: Drug activation in human Hep3B cells assessed as human CYP2D6-mediated drug metabolism-induced cytotoxicity measured as decrease in cell viability at 300 uM pre-incubated with BSO for 18 hrs followed by incubation with compound for 3 hrs in presence of NADPH measured after 24 hrs in absence of compound, CYP3A4 and NADPH by cell titer-glo luminescence assay relative to BSO alone. On the technique in general: In ATP-based viability assays light output follows the ATP content of the culture.

Another data set deals with Cytochrome P450 3A4 (Homo sapiens, UniProt P08684). Nature of the data set: Drug activation in human Hep3B cells assessed as human CYP3A4-mediated drug metabolism-induced cytotoxicity measured as decrease in cell viability at 300 uM pre-incubated with BSO for 18 hrs followed by incubation with compound for 3 hrs in presence of NADPH measured after 24 hrs in absence of compound, CYP3A4 and NADPH by cell titer-glo luminescence assay relative to BSO alone.

The target of the next data set is Cytochrome P450 2C9 (Homo sapiens, UniProt P11712). Nature of the data set: Drug activation in human Hep3B cells assessed as human CYP2C9-mediated drug metabolism-induced cytotoxicity measured as decrease in cell viability at 300 uM pre-incubated with BSO for 18 hrs followed by incubation with compound for 3 hrs in presence of NADPH measured after 24 hrs in absence of compound, CYP3A4 and NADPH by cell titer-glo luminescence assay relative to BSO alone.
Cytochrome P450 2C9, sequence (P11712 whole entry): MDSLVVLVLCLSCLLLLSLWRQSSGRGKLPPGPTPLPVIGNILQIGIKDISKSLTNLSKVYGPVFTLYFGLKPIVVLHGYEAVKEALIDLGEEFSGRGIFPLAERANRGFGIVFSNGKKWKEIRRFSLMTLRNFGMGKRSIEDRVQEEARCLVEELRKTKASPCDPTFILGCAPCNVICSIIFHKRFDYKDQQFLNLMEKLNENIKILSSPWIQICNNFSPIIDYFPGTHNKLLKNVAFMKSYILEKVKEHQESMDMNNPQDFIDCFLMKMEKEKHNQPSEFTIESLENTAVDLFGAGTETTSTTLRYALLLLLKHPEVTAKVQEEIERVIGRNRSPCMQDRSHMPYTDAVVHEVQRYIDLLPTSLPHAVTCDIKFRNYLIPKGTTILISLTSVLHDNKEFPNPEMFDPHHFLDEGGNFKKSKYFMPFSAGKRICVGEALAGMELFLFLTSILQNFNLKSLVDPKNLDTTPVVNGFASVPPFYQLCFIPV

Cytochrome P450 2D6, sequence (P10635 whole entry): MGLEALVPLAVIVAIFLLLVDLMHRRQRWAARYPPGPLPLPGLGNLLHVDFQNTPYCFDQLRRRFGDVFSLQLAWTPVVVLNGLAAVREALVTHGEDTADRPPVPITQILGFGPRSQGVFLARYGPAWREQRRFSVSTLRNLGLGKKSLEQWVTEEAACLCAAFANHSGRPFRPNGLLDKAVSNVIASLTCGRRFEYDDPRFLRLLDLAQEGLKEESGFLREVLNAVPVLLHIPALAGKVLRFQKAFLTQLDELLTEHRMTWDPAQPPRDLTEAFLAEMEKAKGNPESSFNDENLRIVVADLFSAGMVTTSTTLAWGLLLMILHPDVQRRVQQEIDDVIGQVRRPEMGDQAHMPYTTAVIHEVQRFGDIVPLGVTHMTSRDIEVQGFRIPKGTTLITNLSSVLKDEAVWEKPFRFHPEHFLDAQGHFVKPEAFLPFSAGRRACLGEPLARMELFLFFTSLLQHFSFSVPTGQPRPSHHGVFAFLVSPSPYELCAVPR
Cytochrome P450 3A4, sequence (P08684 whole entry): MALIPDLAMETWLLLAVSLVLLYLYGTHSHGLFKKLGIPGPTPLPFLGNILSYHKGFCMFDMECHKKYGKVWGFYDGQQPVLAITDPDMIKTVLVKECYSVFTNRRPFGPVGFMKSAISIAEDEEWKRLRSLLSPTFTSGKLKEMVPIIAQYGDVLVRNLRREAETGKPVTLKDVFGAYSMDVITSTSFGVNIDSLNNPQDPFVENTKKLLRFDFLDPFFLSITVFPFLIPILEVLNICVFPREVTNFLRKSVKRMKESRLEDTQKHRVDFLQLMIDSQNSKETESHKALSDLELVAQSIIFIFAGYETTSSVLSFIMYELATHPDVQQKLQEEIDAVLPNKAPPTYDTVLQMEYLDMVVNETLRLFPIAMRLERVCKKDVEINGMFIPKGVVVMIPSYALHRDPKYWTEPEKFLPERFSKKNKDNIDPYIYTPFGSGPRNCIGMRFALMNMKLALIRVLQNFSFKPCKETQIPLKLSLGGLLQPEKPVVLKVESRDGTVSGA

On to `CCCCCCCCCCCCOS(=O)(=O)O.CC[C@H]1OC(=O)[C@H](C)[C@@H](O[C@H]2C[C@@](C)(OC)[C@@H](O)[C@H](C)O2)[C@H](C)[C@@H](O[C@@H]2O[C@H](C)C[C@H](N(C)C)[C@H]2O)[C@](C)(O)C[C@@H](C)C(=O)[C@H](C)[C@@H](O)[C@]1(C)O`, for which the FC at Cytochrome P450 2D6 and at Cytochrome P450 3A4 was 1 throughout.

For `O=C(O)COc1ccc(C(=O)c2cccs2)c(Cl)c1Cl`, the FC at Cytochrome P450 2D6, on Cytochrome P450 3A4 and at Cytochrome P450 2C9 was 1 each time.

In the case of `Nc1nc(NC2CC2)c2ncn([C@H]3C=C[C@@H](CO)C3)c2n1` [ABACAVIR], the FC at Cytochrome P450 2D6, on Cytochrome P450 3A4 and at Cytochrome P450 2C9 was 1 throughout.

Regarding `Nc1nc2c(ncn2COCCO)c(=O)[nH]1` [ACYCLOVIR], the FC on Cytochrome P450 2D6, at Cytochrome P450 3A4 and at Cytochrome P450 2C9 was 1 throughout.

On to `CC(C)(C)NCC(O)c1ccc(O)c(CO)c1` (stereo not drawn) [ALBUTEROL], for which the FC on Cytochrome P450 2D6, on Cytochrome P450 3A4 and on Cytochrome P450 2C9 was 1 throughout.

Turning to `Oc1ncnc2[nH]ncc12` [ALLOPURINOL], the FC on Cytochrome P450 2D6, at Cytochrome P450 3A4 and at Cytochrome P450 2C9 was 1 in each case.

Regarding `COC(c1ccccc1)(c1ccccc1)[C@H](Oc1nc(C)cc(C)n1)C(=O)O` [AMBRISENTAN], the FC at Cytochrome P450 2D6, at Cytochrome P450 3A4 and at Cytochrome P450 2C9 was 1 each time.

Consider `O=C(O)CCCCCCNC1c2ccccc2CCc2ccccc21` [AMINEPTINE], for which the FC at Cytochrome P450 2D6, at Cytochrome P450 3A4 and on Cytochrome P450 2C9 was 1 throughout.

`Nc1ccc(C(=O)O)c(O)c1` [AMINOSALICYLIC ACID]: the FC on Cytochrome P450 2D6, at Cytochrome P450 3A4 and at Cytochrome P450 2C9 was 1 throughout.

Turning to `CC1(C)S[C@@H]2[C@H](NC(=O)[C@H](N)c3ccc(O)cc3)C(=O)N2[C@H]1C(=O)O` [AMOXICILLIN], the FC on Cytochrome P450 2D6, at Cytochrome P450 3A4 and at Cytochrome P450 2C9 was 1 throughout.

As for `CC(=O)Oc1ccccc1C(=O)O` [ASPIRIN], the FC at Cytochrome P450 2D6, at Cytochrome P450 3A4 and on Cytochrome P450 2C9 was 1 throughout.

In the case of `CC(C(=O)O)c1ccc2oc(-c3ccc(Cl)cc3)nc2c1` (stereo not drawn) [BENOXAPROFEN], the FC at Cytochrome P450 2D6, at Cytochrome P450 3A4 and on Cytochrome P450 2C9 was 1 throughout.

Take `C[N+](C)(C)CC(=O)O` [BETAINE]: the FC at Cytochrome P450 2D6, on Cytochrome P450 3A4 and at Cytochrome P450 2C9 was 1 in each case.

As to `COc1ccccc1Oc1c(NS(=O)(=O)c2ccc(C(C)(C)C)cc2)nc(-c2ncccn2)nc1OCCO` [BOSENTAN], the FC at Cytochrome P450 2D6, at Cytochrome P450 3A4 and on Cytochrome P450 2C9 was 1 each time.

Take `Nc1c(CC(=O)O)cccc1C(=O)c1ccc(Br)cc1` [BROMFENAC]: the FC on Cytochrome P450 2D6, on Cytochrome P450 3A4 and on Cytochrome P450 2C9 was 1 throughout.

For the compound `CC(NC(C)(C)C)C(=O)c1cccc(Cl)c1` (stereo not drawn) [BUPROPION], the FC at Cytochrome P450 2D6, at Cytochrome P450 3A4 and on Cytochrome P450 2C9 was 1 in each case.

For the compound `CS(=O)(=O)OCCCCOS(C)(=O)=O` [BUSULFAN], the FC at Cytochrome P450 2D6, at Cytochrome P450 3A4 and at Cytochrome P450 2C9 was 1 each time.

For the compound `C[C@H](CS)C(=O)N1CCC[C@H]1C(=O)O` [CAPTOPRIL], the FC at Cytochrome P450 2D6, on Cytochrome P450 3A4 and on Cytochrome P450 2C9 was 1 in each case.

As to `NC(=O)N1c2ccccc2C=Cc2ccccc21` [CARBAMAZEPINE], the FC on Cytochrome P450 2D6, at Cytochrome P450 3A4 and on Cytochrome P450 2C9 was 1 in each case.

For the compound `C[C@@](Cc1ccc(O)c(O)c1)(NN)C(=O)O` [CARBIDOPA ANHYDROUS], the FC at Cytochrome P450 2D6, on Cytochrome P450 3A4 and on Cytochrome P450 2C9 was 0.6 in each case.

As to `CCCNC(=O)NS(=O)(=O)c1ccc(Cl)cc1` [CHLORPROPAMIDE], the FC at Cytochrome P450 2D6, at Cytochrome P450 3A4 and on Cytochrome P450 2C9 was 1 each time.

In the case of `O=C(O)c1cc(-c2ccccc2)nc2ccccc12` [CINCHOPHEN], the FC at Cytochrome P450 2D6, on Cytochrome P450 3A4 and on Cytochrome P450 2C9 was 1 throughout.

In the case of `Clc1cccc(Cl)c1N=C1NCCN1` [CLONIDINE], the FC at Cytochrome P450 2D6, on Cytochrome P450 3A4 and at Cytochrome P450 2C9 was 1 each time.

For the compound `O=P1(N(CCCl)CCCl)NCCCO1` (stereo not drawn) [CYCLOPHOSPHAMIDE ANHYDROUS], the FC at Cytochrome P450 2D6, at Cytochrome P450 3A4 and on Cytochrome P450 2C9 was 1 each time.

Regarding `CN(C)/N=N/c1[nH]cnc1C(N)=O` [DACARBAZINE], the FC at Cytochrome P450 2D6 and on Cytochrome P450 3A4 was 1 each time.

Regarding `CC(=O)N(O)CCCCCNC(=O)CCC(=O)N(O)CCCCCNC(=O)CCC(=O)N(O)CCCCCN` [DEFEROXAMINE], the FC at Cytochrome P450 2D6, at Cytochrome P450 3A4 and at Cytochrome P450 2C9 was 1 throughout.

In the case of `O=c1[nH]cnc2c1ncn2[C@H]1CC[C@@H](CO)O1` [DIDANOSINE], the FC on Cytochrome P450 2D6, on Cytochrome P450 3A4 and at Cytochrome P450 2C9 was 1 in each case.

As for `C[C@H]1O[C@@H](O[C@H]2[C@@H](O)C[C@H](O[C@H]3[C@@H](O)C[C@H](O[C@H]4CC[C@@]5(C)[C@H](CC[C@@H]6[C@@H]5C[C@@H](O)[C@]5(C)[C@@H](C7=CC(=O)OC7)CC[C@]65O)C4)O[C@@H]3C)O[C@@H]2C)C[C@H](O)[C@@H]1O` [DIGOXIN], the FC at Cytochrome P450 2D6, at Cytochrome P450 3A4 and on Cytochrome P450 2C9 was 1 in each case.

Turning to `COC(=O)CCc1ccc(OCC(O)CNC(C)C)cc1` (stereo not drawn) [ESMOLOL], the FC on Cytochrome P450 2D6, on Cytochrome P450 3A4 and at Cytochrome P450 2C9 was 1 throughout.

As to `CC[C@@H](CO)NCCN[C@@H](CC)CO` [ETHAMBUTOL], the FC on Cytochrome P450 2D6, on Cytochrome P450 3A4 and on Cytochrome P450 2C9 was 1 throughout.

Consider `CCc1cccc2c3c([nH]c12)C(CC)(CC(=O)O)OCC3` (stereo not drawn) [ETODOLAC], for which the FC on Cytochrome P450 2D6, on Cytochrome P450 3A4 and at Cytochrome P450 2C9 was 1 each time.

On to `CC(C(=O)O)c1ccc(-c2ccccc2)c(F)c1` (stereo not drawn) [FLURBIPROFEN], for which the FC at Cytochrome P450 2D6, on Cytochrome P450 3A4 and on Cytochrome P450 2C9 was 1 throughout.

For the compound `Nc1nc2ncc(CNc3ccc(C(=O)N[C@@H](CCC(=O)O)C(=O)O)cc3)nc2c(=O)[nH]1` [FOLIC ACID], the FC at Cytochrome P450 2D6, at Cytochrome P450 3A4 and at Cytochrome P450 2C9 was 0.6 in each case.

As to `Nc1nc(O)c2ncn(COC(CO)CO)c2n1` [GANCICLOVIR], the FC at Cytochrome P450 2D6, on Cytochrome P450 3A4 and at Cytochrome P450 2C9 was 1 throughout.

Take `COC1=CC(=O)C[C@@H](C)[C@]12Oc1c(Cl)c(OC)cc(OC)c1C2=O` [GRISEOFULVIN]: the FC at Cytochrome P450 2D6, at Cytochrome P450 3A4 and on Cytochrome P450 2C9 was 1 in each case.

In the case of `O=C(CCCN1CCC(O)(c2ccc(Cl)cc2)CC1)c1ccc(F)cc1` [HALOPERIDOL], the FC on Cytochrome P450 2D6, on Cytochrome P450 3A4 and at Cytochrome P450 2C9 was 1 in each case.

For `NNC(=O)c1ccncc1` [ISONIAZID], the FC at Cytochrome P450 2D6, at Cytochrome P450 3A4 and at Cytochrome P450 2C9 was 1 in each case.

Regarding `NC[C@H]1O[C@H](O[C@H]2[C@H](O)[C@@H](O[C@H]3O[C@H](CO)[C@@H](O)[C@H](N)[C@H]3O)[C@H](N)C[C@@H]2N)[C@H](O)[C@@H](O)[C@@H]1O` [KANAMYCIN], the FC at Cytochrome P450 2D6, on Cytochrome P450 3A4 and at Cytochrome P450 2C9 was 1 each time.

For the compound `Nc1ccn([C@@H]2CS[C@H](CO)O2)c(=O)n1` [LAMIVUDINE], the FC at Cytochrome P450 2D6, on Cytochrome P450 3A4 and at Cytochrome P450 2C9 was 1 throughout.

Take `Cc1oncc1C(=O)Nc1ccc(C(F)(F)F)cc1` [LEFLUNOMIDE]: the FC at Cytochrome P450 2D6 and at Cytochrome P450 3A4 was 1 each time.

As for `Sc1ncnc2nc[nH]c12` [MERCAPTOPURINE ANHYDROUS], the FC at Cytochrome P450 2D6 and on Cytochrome P450 3A4 was 1 each time.

For `CC(C)NCC(O)c1cc(O)cc(O)c1` (stereo not drawn) [METAPROTERENOL], the FC on Cytochrome P450 2D6, at Cytochrome P450 3A4 and on Cytochrome P450 2C9 was 1 in each case.

`CN(Cc1cnc2nc(N)nc(N)c2n1)c1ccc(C(=O)N[C@@H](CCC(=O)O)C(=O)O)cc1` [METHOTREXATE]: the FC at Cytochrome P450 2D6 and on Cytochrome P450 3A4 was 1 in each case.

In the case of `COCCc1ccc(OCC(O)CNC(C)C)cc1` (stereo not drawn) [METOPROLOL], the FC at Cytochrome P450 2D6, at Cytochrome P450 3A4 and at Cytochrome P450 2C9 was 1 throughout.

`Cc1cccc(C)c1OCC(C)N` (stereo not drawn) [MEXILETINE]: the FC at Cytochrome P450 2D6, at Cytochrome P450 3A4 and at Cytochrome P450 2C9 was 1 in each case.

On to `O=C(O)c1cccnc1` [NIACIN], for which the FC on Cytochrome P450 2D6 and at Cytochrome P450 3A4 was 1 throughout.

Consider `CS(=O)(=O)Nc1ccc([N+](=O)[O-])cc1Oc1ccccc1` [NIMESULIDE], for which the FC on Cytochrome P450 2C9 worked out at 1.

`NC(=O)c1ncn([C@@H]2O[C@H](CO)[C@@H](O)[C@H]2O)n1` [RIBAVIRIN]: the FC at Cytochrome P450 2D6 and at Cytochrome P450 3A4 was 1 in each case.

Consider `CCOc1ccccc1OCCN[C@H](C)Cc1ccc(OC)c(S(N)(=O)=O)c1` [TAMSULOSIN], for which the FC at Cytochrome P450 3A4 and at Cytochrome P450 2C9 was 1 in each case.

Consider `CCCCNC(=O)NS(=O)(=O)c1ccc(C)cc1` [TOLBUTAMIDE], for which the FC at Cytochrome P450 2D6 was 1.

These data come from ChEMBL document CHEMBL4477225, “Development of a cell viability assay to assess drug metabolite structure-toxicity relationships” (Bioorg Med Chem Lett, 2016).
